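Tested at 5 concentrations; 48 h exposure; 96-well plates; endpoints linearly interpolated, else capped at highest concentration. GI50 = concentration required for 50% inhibition of growth. TGI: total growth inhibition.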
Legend:
Assay in all cases: NCI tumour cell line growth inhibition, 48 h
LOX IMVI melanoma = system: LOX IMVI melanoma
SNB-19 CNS = system: SNB-19 CNS
BT-549 breast = system: BT-549 breast
M14 melanoma = system: M14 melanoma
SK-OV-3 ovarian = system: SK-OV-3 ovarian
DU-145 prostate = system: DU-145 prostate
RPMI-8226 leukemia = system: RPMI-8226 leukemia
TK-10 renal = system: TK-10 renal
SNB-78 CNS = system: SNB-78 CNS
DLD-1 colon = system: DLD-1 colon

Row | SMILES | GI50 (LOX IMVI melanoma) [nM] | TGI (LOX IMVI melanoma) [µM] | GI50 (SNB-19 CNS) [nM] | TGI (SNB-19 CNS) [µM] | GI50 (BT-549 breast) [µM] | TGI (BT-549 breast) [µM] | GI50 (M14 melanoma) [nM] | TGI (M14 melanoma) [µM] | GI50 (SK-OV-3 ovarian) [µM] | TGI (SK-OV-3 ovarian) [µM] | GI50 (DU-145 prostate) [nM] | TGI (DU-145 prostate) [µM] | GI50 (RPMI-8226 leukemia) [nM] | TGI (RPMI-8226 leukemia) [µM] | GI50 (TK-10 renal) [nM] | TGI (TK-10 renal) [µM] | TGI (SNB-78 CNS) [µM] | TGI (DLD-1 colon) [µM]
1 | CN1CCN(Cc2ccc(NC(=O)c3nc4ccc5[nH]ncc5c4c4c3CCC4)cc2C(F)(F)F)CC1 | 832 | 1.54 | 976 | 2.11 | 7.61 | 14.9 | 934 | 1.76 | 8.28 | 15.5 | 944 | 1.76 | 1140 | 2.82 | 884 | 1.65 | – | –
2 | O=C(NNc1ccccc1)OCc1ccccc1 | 15200 | > 100 | 63900 | > 100 | 16.6 | 85.5 | 2810 | 60.6 | > 100 | > 100 | 75500 | > 100 | 17300 | > 100 | 32900 | > 100 | – | –
3 | Cc1c(C(=O)/C=C/c2ccccc2Cl)[n+](=O)c2ccccc2n1[O-] | – | – | – | 31 | – | – | – | 29 | – | 35.7 | – | – | – | 36.1 | – | – | 44.3 | 19.8
4 | CC[N+]1(C)CCC(O)(c2ccccc2)C(C(=O)c2ccccc2)C1 (stereo unspecified) | – | 36.8 | – | 24.5 | – | 27.7 | – | 24.1 | – | 32.1 | – | 44.6 | – | 6.37 | – | 31.4 | – | 27.2
5 | O=C(CC(=O)Nc1ccccc1O)Nc1ccccc1O | – | – | – | > 100 | – | – | – | 29.7 | – | > 100 | – | – | – | 44.2 | – | > 100 | > 100 | 40.3
6 | COc1ccc2[nH]c(=O)c(/C=C/C(=O)/C=C/c3ccc(O)c(OC)c3)cc2c1 | 1540 | 3.18 | 1670 | 3.92 | 1.37 | 2.66 | 1670 | 4.99 | 2.79 | 9.82 | 1690 | 3.5 | 359 | 1.65 | 2290 | 5.72 | – | –
7 | NCCCC1NC(=O)/C(=C(O)/C=C/C2CCC[C@@H]2CC2SCCS2)C1=O (stereo partly specified) | – | > 100 | – | > 100 | – | – | – | > 100 | – | > 100 | – | – | – | > 100 | – | > 100 | – | > 100
8 | Cc1ccc2c(Nc3cccc(Cl)c3F)ncc(NC(=O)c3csc4c(N)ncnc34)c2c1 | 74.3 | > 100 | > 100000 | > 100 | > 100 | > 100 | 35.1 | 0.608 | > 100 | > 100 | > 100000 | > 100 | 2810 | > 100 | > 100000 | > 100 | – | –
9 | O=C(O)c1ccc(NCc2nc3cc4ccccc4cc3[nH]2)cc1 | – | > 100 | – | > 100 | – | > 100 | – | > 100 | – | > 100 | – | > 100 | – | > 100 | – | > 100 | – | –
